In brackets after ≈: the same amount, converted by molar mass.
Tests used:
Type in all cases: cell-based
[1] = test system: Prostate cancer cell line LNcaP; test: Inhibitory activity on cancer cells, CellTiter-Glo viability, LNcaP; conditions: Homo sapiens, 72 hours treatment
How it was run: (§1)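 HUVEC seeded at 2000, UM-UC-3 and RM-1 at 3000, LNCaP at 5000 cells/well, each in its own medium, 24 h before dosing. Compounds: 8-point 2.5-fold dilutions from 100 μmol, 72 h at 37 °C, 5% CO2. CellTiter-Glo luminescence; IC50 from growth-inhibition curves.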

[2] = test system: Endothelial cell line HUVEC; test: Inhibitory activity on cells, CellTiter-Glo viability, HUVEC; conditions: Homo sapiens, 72 hours treatment
How it was run: as §1

[3] = test system: Mouse prostate cancer cell line RM1; test: Inhibitory activity on cancer cells, CellTiter-Glo viability, RM1; conditions: 72 hours treatment
How it was run: as §1

[4] = test system: Escherichia coli (carbapenem-resistant clinical isolate; ATCC25922); test: MIC by micro broth dilution (CLSI), Escherichia coli; conditions: for MIC50 / MIC90: ATCC25922, Clinical strain; for MIC50 / MIC90 / MIC: Escherichia coli; for MIC50: read-out: MIC50; for MIC90: read-out: MIC90; for MIC: Standard strain ATCC25922, read-out: MIC
How it was run: (§2)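 Compounds were dissolved in DMSO and tested at 128 to 0.06 mg/L in cation-adjusted Mueller-Hinton broth. Overnight cultures were set to 0.5 McFarland, diluted 100-fold to a final 10^5 CFU/mL, and incubated at 35±2° C for 20 hours in air. Results were interpreted by CLSI 2019 M100 criteria.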

[5] = test system: Staphylococcus aureus (methicillin-resistant and sensitive clinical isolates; ATCC29213); test: MIC by micro broth dilution (CLSI), Staphylococcus aureus; conditions: for MIC50 / MIC90: Clinical strain; for MIC50: read-out: MIC50; for MIC90: read-out: MIC90; for MIC: Standard strain ATCC29213, read-out: MIC
How it was run: as §2

[6] = test system: Acinetobacter baumannii (carbapenem-resistant clinical isolates; ATCC19606); test: MIC by micro broth dilution (CLSI), Acinetobacter baumannii; conditions: for MIC50 / MIC90: ATCC19606, Clinical strain; for MIC50 / MIC90 / MIC: Acinetobacter baumannii; for MIC50: read-out: MIC50; for MIC90: read-out: MIC90; for MIC: Standard strain ATCC19606, read-out: MIC; for inhibitory effect against Acinetobacter baumannii compared with the reference drug nitroxoline: MIC comparison
How it was run: as §2

[7] = test system: Bladder cancer cell line UM-UC-3; test: Inhibitory activity on cancer cells, CellTiter-Glo viability, UM-UC-3; conditions: Homo sapiens, UMUC3, 72 hours treatment
How it was run: as §1

SMILES | IC50 [1] | IC50 [3] | MIC50 [4] | MIC90 [4] | MIC [4] | MIC50 [5] | MIC90 [5] | MIC [5] | MIC50 [6] | MIC90 [6] | MIC [6] | IC50 [7] | IC50 [2] | inhibitory effect against Escherichia coli compared with the reference drug nitroxoline ([4]; MIC comparison) | inhibitory effect against Acinetobacter baumannii compared with the reference drug nitroxoline [6]
O=[N+]([O-])c1ccc2c(C(F)(F)F)ccnc2c1O [Example 62, 7-Nitro-4-trifluoromethylquinolin-8-ol] | 2490 nM | 4.82 µM | 8 µg/mL (≈ 31 µM) | 8 µg/mL (≈ 31 µM) | 4 µg/mL (≈ 15.5 µM) | 2 µg/mL (≈ 7.75 µM) | 4 µg/mL (≈ 15.5 µM) | 2 µg/mL (≈ 7.75 µM) | 4 µg/mL (≈ 15.5 µM) | 4 µg/mL (≈ 15.5 µM) | 4 µg/mL (≈ 15.5 µM) | 11.2 µM | 3.54 µM | comparable to that of the reference drug nitroxoline | –
O=[N+]([O-])c1cc(Cl)c2c(C3CCCCC3)ccnc2c1O [Example 64, 5-Chloro-4-cyclohexyl-7-nitroquinolin-8-ol] | 220 nM | 0.86 µM | > 128 µg/mL | > 128 µg/mL | > 128 µg/mL | 0.5 µg/mL (≈ 1.63 µM) | 1 µg/mL (≈ 3.26 µM) | 0.5 µg/mL (≈ 1.63 µM) | > 128 µg/mL | > 128 µg/mL | > 128 µg/mL | 1.24 µM | 0.44 µM | – | –
CC1CCCN(c2ccnc3c(O)c([N+](=O)[O-])cc(Cl)c23)C1 (stereo not drawn) [Example 66, 5-Chloro-4-(3-methylpiperidin-1-yl)-7-nitroquinolin-8-ol] | 1360 nM | 4.29 µM | > 128 µg/mL | > 128 µg/mL | > 128 µg/mL | 1 µg/mL (≈ 3.11 µM) | 1 µg/mL (≈ 3.11 µM) | 1 µg/mL (≈ 3.11 µM) | > 128 µg/mL | > 128 µg/mL | > 128 µg/mL | 5.43 µM | 4.54 µM | – | –
Cl.O=[N+]([O-])c1cc(Cl)c2c(OCc3ccccc3)ccnc2c1O [Example 67, 4-(benzyloxy)-5-chloro-7-nitroquinolin-8-ol hydrochloride] | 8680 nM | 13.2 µM | > 128 µg/mL | > 128 µg/mL | > 128 µg/mL | 1 µg/mL | 64 µg/mL | 2 µg/mL | > 128 µg/mL | > 128 µg/mL | > 128 µg/mL | 9.28 µM | 3.23 µM | – | –
O=[N+]([O-])c1cc(F)c2c(Cl)ccnc2c1O [Example 68, 4-Chloro-5-fluoro-7-nitroquinolin-8-ol] | 5380 nM | 5.19 µM | 8 µg/mL (≈ 33 µM) | 32 µg/mL (≈ 132 µM) | 8 µg/mL (≈ 33 µM) | 2 µg/mL (≈ 8.24 µM) | 4 µg/mL (≈ 16.5 µM) | 4 µg/mL (≈ 16.5 µM) | 4 µg/mL (≈ 16.5 µM) | 8 µg/mL (≈ 33 µM) | 2 µg/mL (≈ 8.24 µM) | 17.5 µM | 10 µM | – | comparable to that of the reference drug nitroxoline
O=[N+]([O-])c1cc(F)c2c(N3CCC(F)(F)CC3)ccnc2c1O [Example 69, 4-(4,4-Difluoropiperidin-1-yl)-5-fluoro-7-nitroquinolin-8-ol] | 1330 nM | 2.23 µM | > 128 µg/mL | > 128 µg/mL | > 128 µg/mL | 2 µg/mL (≈ 6.11 µM) | 2 µg/mL (≈ 6.11 µM) | 4 µg/mL (≈ 12.2 µM) | > 128 µg/mL | > 128 µg/mL | > 128 µg/mL | 4.81 µM | 2.67 µM | – | –

Further lines, with some results ahead:

IC50 [1] | IC50 [3] | MIC50 [4] | MIC90 [4] | MIC [4] | MIC50 [5] | MIC90 [5] | MIC [5] | MIC50 [6] | MIC90 [6] | MIC [6] | IC50 [7] | SMILES | IC50 [2] | inhibitory effect against Escherichia coli compared with the reference drug nitroxoline ([4]; MIC comparison) | inhibitory effect against Acinetobacter baumannii compared with the reference drug nitroxoline [6]
960 nM | 2.62 µM | > 128 µg/mL | > 128 µg/mL | > 128 µg/mL | 2 µg/mL (≈ 5.57 µM) | 4 µg/mL (≈ 11.1 µM) | 4 µg/mL (≈ 11.1 µM) | > 128 µg/mL | > 128 µg/mL | > 128 µg/mL | 5.28 µM | O=[N+]([O-])c1cc(F)c2c(N3CCC(C(F)(F)F)CC3)ccnc2c1O [Example 70, 5-Fluoro-7-nitro-4-(4-(trifluoromethyl)piperidin-1-yl)quinolin-8-ol] | 2.78 µM | – | –
1530 nM | 2.51 µM | > 128 µg/mL | > 128 µg/mL | > 128 µg/mL | 2 µg/mL (≈ 5.5 µM) | 4 µg/mL (≈ 11 µM) | 8 µg/mL (≈ 22 µM) | > 128 µg/mL | > 128 µg/mL | > 128 µg/mL | 6.8 µM | CCOC(=O)C1CCN(c2ccnc3c(O)c([N+](=O)[O-])cc(F)c23)CC1 [Example 71, Ethyl 1-(5-fluoro-8-hydroxy-7-nitroquinolin-4-yl)piperidine-4-carboxylate] | 2.7 µM | – | –
1890 nM | 3.03 µM | > 128 µg/mL | > 128 µg/mL | > 128 µg/mL | 2 µg/mL (≈ 7.19 µM) | 4 µg/mL (≈ 14.4 µM) | 2 µg/mL (≈ 7.19 µM) | > 128 µg/mL | > 128 µg/mL | 64 µg/mL (≈ 230 µM) | 6.28 µM | O=[N+]([O-])c1cc(F)c2c(OCC3CC3)ccnc2c1O [Example 72, 4-(Cyclopropylmethoxy)-5-fluoro-7-nitroquinolin-8-ol] | 2.65 µM | – | –
2310 nM | 2.63 µM | 8 µg/mL | 64 µg/mL | 8 µg/mL | 1 µg/mL | 2 µg/mL | 1 µg/mL | 8 µg/mL | 32 µg/mL | 2 µg/mL | 5.04 µM | Cl.O=[N+]([O-])c1cc(Cl)c2c(C(F)(F)F)ccnc2c1O [Example 73, 5-chloro-7-nitro-4-(trifluoromethyl)-quinolin-8-ol hydrochloride] | 3.45 µM | – | comparable to that of the reference drug nitroxoline
530 nM | 7.64 µM | 128 µg/mL (≈ 484 µM) | 128 µg/mL (≈ 484 µM) | > 128 µg/mL | 0.25 µg/mL (≈ 0.945 µM) | 0.5 µg/mL (≈ 1.89 µM) | 0.5 µg/mL (≈ 1.89 µM) | 128 µg/mL (≈ 484 µM) | 128 µg/mL (≈ 484 µM) | 4 µg/mL (≈ 15.1 µM) | 1.57 µM | O=[N+]([O-])c1ccc2c(Cl)c(C3CC3)cnc2c1O [Example 74, 4-chloro-3-cyclopropyl-7-nitroquinolin-8-ol] | 1.28 µM | – | –
15200 nM | 13.3 µM | 32 µg/mL (≈ 149 µM) | 64 µg/mL (≈ 297 µM) | 32 µg/mL (≈ 149 µM) | 32 µg/mL (≈ 149 µM) | 32 µg/mL (≈ 149 µM) | 32 µg/mL (≈ 149 µM) | 32 µg/mL (≈ 149 µM) | 64 µg/mL (≈ 297 µM) | 32 µg/mL (≈ 149 µM) | 38.8 µM | N#Cc1ccnc2c(O)c([N+](=O)[O-])ccc12 [Example 76, 8-hydroxy-7-nitroquinoline-4-carbonitrile] | 18 µM | – | –

— US20240246916A1, “7-NITRO-8-HYDROXYQUINOLINE DERIVATIVES, PREPARATION METHOD THEREFORE AND MEDICAL USE THEREOF” (Jiangsu Yahong Meditech Co., Ltd., priority 2021, published 2024)
